# Experimental data reported in ChEMBL document CHEMBL3608235, “Pyrroloaryls and pyrroloheteroaryls: Inhibitors of the HIV fusion/attachment, reverse transcriptase and integrase” (Bioorg Med Chem, 2015).
# What was measured:
# [1] = tested on: Human immunodeficiency virus 2; assay: Antiviral activity against HIV2 ROD; format: functional, organism-based; conditions: Human immunodeficiency virus 2, ISOLATE ROD
# [2] = tested on: Human immunodeficiency virus 1; assay: Antiviral activity against HIV1 infected in human MT4 cells assessed as reduction in virus-induced cytopathogenicity; format: functional, organism-based; conditions: Human immunodeficiency virus 1, MT4
# [3] = Cytotoxicity against mock-infected human MT4 cells assessed as reduction in cell viability; format: cell-based
# [4] = Selectivity index, ratio of CC50 for mock-infected human MT4 cells to EC50 for HIV1 infected in human MT4 cells; format: toxicity, cell-based; conditions: MT4 cells (mock-infected and HIV1-infected), read-out: Ratio CC50/EC50
Structure (SMILES),EC50 [1],EC50 [2],other results
O=C1N(Cc2ccccc2Br)c2cccn2S(=O)(=O)N1Cc1cccc(Br)c1,> 150 µM,,
N#CCN1C(=O)N(Cc2ccccc2)S(=O)(=O)n2cccc21,> 150 µM,,
O=S1(=O)c2cc(Cl)ccc2NC(=S)c2c[nH]cc21,,8.1 µM,
N#Cc1cccc(CN2C(=O)N(Cc3cccc(Cl)c3)S(=O)(=O)n3cccc32)c1,> 150 µM,,
CSCn1cc2c(c1)S(=O)(=O)c1cc(Cl)ccc1NC2=O,,2.2 µM,
N#CCN1C(=O)N(Cc2cccc(F)c2)S(=O)(=O)n2cccc21,> 150 µM,,
CC(C)=CCn1cc2c(c1)S(=O)(=O)c1cc(Cl)ccc1NC2=S,,0.7 µM,
N#CCN1C(=O)N(Cc2cccc(Cl)c2)S(=O)(=O)n2cccc21,> 150 µM,,
CN1C(=S)c2cn(C)cc2S(=O)(=O)c2cc(Cl)ccc21,,1.6 µM,
CC(C)=CCN1C(=O)N(Cc2ccccc2)S(=O)(=O)n2cccc21,> 150 µM,,
N#Cc1ccccc1CN1C(=O)N(Cc2cccc(Br)c2)S(=O)(=O)n2cccc21,> 150 µM,,
O=C1N(Cc2cccc(Cl)c2)c2cccn2S(=O)(=O)N1Cc1ccccc1,> 150 µM,,
O=C1N(Cc2ccccc2)c2cccn2S(=O)(=O)N1Cc1cccc(Cl)c1,> 150 µM,,
Cc1cc(C)cc(Sc2c(C(C)C)c(COC(N)=O)cn2Cc2ccncc2)c1,,0.15 µM,CC50 [3]: > 200 µM; selectivity ratio [4]: 1330
O=C1N(Cc2ccccc2Br)c2cccn2S(=O)(=O)N1Cc1ccccc1,> 150 µM,,
Cn1cc2c(c1)S(=O)(=O)c1cc(Cl)ccc1NC2=S,,7.6 µM,
N#Cc1cccc(CN2C(=O)N(Cc3cccc(Br)c3)S(=O)(=O)n3cccc32)c1,> 150 µM,,
CC(C)c1c(CO)cn(Cc2ccncc2)c1Sc1cc(Cl)cc(Cl)c1,,0.03 µM,CC50 [3]: > 200 µM; selectivity ratio [4]: > 6670
N#CCN1C(=O)N(Cc2cccc(Br)c2)S(=O)(=O)n2cccc21,> 150 µM,,
O=C1N(Cc2ccccc2Br)c2cccn2S(=O)(=O)N1Cc1cccc(Cl)c1,> 150 µM,,

Structure (SMILES),EC50 [1],EC50 [2],other results
CC(C)=CCn1cc2c(c1)S(=O)(=O)c1cc(Cl)ccc1NC2=O,,,CC50 [3]: 68 µM; selectivity ratio [4]: 226
CC(C)=CCN1C(=O)N(Cc2cccc(Cl)c2)S(=O)(=O)n2cccc21,> 150 µM,,
O=C1N(Cc2cccc(Cl)c2)c2cccn2S(=O)(=O)N1Cc1cccc(Br)c1,> 150 µM,,
CC(C)=CCN1C(=O)N(Cc2cccc(Br)c2)S(=O)(=O)n2cccc21,> 150 µM,,
CC(C)c1c(COC(N)=O)cn(Cc2ccncc2)c1Sc1cc(Cl)cc(Cl)c1,,0.12 µM,CC50 [3]: > 200 µM; selectivity ratio [4]: > 1670
CC(C)c1c(COC(N)=O)cn(Cc2ccc(N)cc2)c1Sc1cc(Cl)cc(Cl)c1,,0.1 µM,CC50 [3]: > 200 µM; selectivity ratio [4]: 2000
O=C1N(Cc2ccccc2)c2cccn2S(=O)(=O)N1Cc1cccc(Br)c1,> 150 µM,,
CC(C)c1c(COC(N)=O)cn(Cc2ccncc2)c1Sc1cccc(F)c1,,0.2 µM,CC50 [3]: > 200 µM; selectivity ratio [4]: 1000
O=C1N(Cc2ccccc2Cl)c2cccn2S(=O)(=O)N1Cc1ccccc1,> 150 µM,,
CC(C)=CCN1C(=O)N(Cc2cccc(F)c2)S(=O)(=O)n2cccc21,> 150 µM,,
CC(C)c1c(COC(N)=O)cn(Cc2ccncc2)c1Sc1cc(F)cc(F)c1,,0.1 µM,CC50 [3]: > 200 µM; selectivity ratio [4]: 2000
Cc1cccc(Sc2c(C(C)C)c(COC(N)=O)cn2Cc2ccncc2)c1,,0.12 µM,CC50 [3]: > 200 µM; selectivity ratio [4]: 1670
N#Cc1ccccc1CN1C(=O)N(Cc2cccc(Cl)c2)S(=O)(=O)n2cccc21,> 150 µM,,
O=C1N(Cc2cccc(Cl)c2)c2cccn2S(=O)(=O)N1Cc1cccc(Cl)c1,> 150 µM,,
O=C1N(Cc2ccccc2)c2cccn2S(=O)(=O)N1Cc1cccc(F)c1,> 150 µM,,
O=C1N(Cc2ccccc2)c2cccn2S(=O)(=O)N1Cc1ccccc1,> 150 µM,,
N#Cc1cccc(CN2C(=O)N(Cc3cccc(F)c3)S(=O)(=O)n3cccc32)c1,> 150 µM,,
O=C1Nc2ccc(Cl)cc2S(=O)(=O)c2cn(CC3CC3)cc21,,2.2 µM,
O=C1N(Cc2ccccc2Br)c2cccn2S(=O)(=O)N1Cc1cccc(F)c1,> 150 µM,,
